Among the data in BindingDB's records for doi:10.1021/jm800325y (National Taiwan University, 2008) are IC50 values, retold here.

This test deals with T1, Geranylgeranyl pyrophosphate synthase (Homo sapiens, UniProt O95749).
T1 sequence (O95749 whole entry): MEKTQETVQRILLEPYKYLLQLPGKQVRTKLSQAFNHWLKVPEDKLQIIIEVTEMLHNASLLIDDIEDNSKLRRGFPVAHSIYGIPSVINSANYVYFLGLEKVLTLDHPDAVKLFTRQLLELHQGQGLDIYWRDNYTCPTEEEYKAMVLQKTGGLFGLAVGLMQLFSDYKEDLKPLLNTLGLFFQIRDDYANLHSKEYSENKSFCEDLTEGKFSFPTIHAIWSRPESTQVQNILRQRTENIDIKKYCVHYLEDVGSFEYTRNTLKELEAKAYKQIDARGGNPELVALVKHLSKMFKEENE
Kind of test: GGPP Synthase Inhibition Assay. Conditions: pH 7; 37 °C. As for the experimental part: The inhibitory activity of each test compound was evaluated by monitoring the formation of [14C]GGPP from FPP, using [14C]IPP as the substrate. To confirm the formation of radioactive products, one-dimensional thin-layer chromatography (TLC), with autoradiographic detection of [14C]FPP/[14C]GGPP, was used.

What is called IC50 is the point on the concentration scale where inhibition reaches its midpoint. Consider `CCCCCCCCc1ccc[n+](CC(O)(P(=O)([O-])O)P(=O)(O)O)c1` (configuration not stated) [1-(2-hydrogenphosphonato-2-hydroxy-2-phosphonoethyl)-3-octylpyridin-1-ium], for which the IC50 stood at 1.38 µM. In turn, `CCCCCCCCCC(O)(P(=O)(O)O)P(=O)(O)O` [(1-hydroxy-1-phosphonodecyl)phosphonic acid] displayed an IC50 of 0.89 µM.
